Assay results taken from patent EP0762895B1, “SYNTHETIC VACCINE FOR PROTECTION AGAINST HUMAN IMMUNODEFICIENCY VIRUS INFECTION” (DUKE UNIVERSITY, priority 1994, dated 1995).
Where no end group is shown, it is not given here.

tested on: Normal Human Peripheral Blood Lymphocytes; settings: not given

With “CTRPNNNTRKSIRIQRGPG [SP-10, CTRPNNNTRKSIRIQRGPG]” the “Inhibition of normal T cell response to tetanus toxoid” value was “no inhibition of normal T cell response to tetanus toxoid was observed”.

tested on: T cells; settings: T helper epitopes of Clerici et al 1989; share of population studied; cited from earlier work

Going from HEDIISLWNQSLK [T2] to KQIINMWQEVGKAMYA [T1], the “% Responding” value rises from 54% to 77%.

For “TH4: T helper epitope, amino acids 834-848 of gp41 (QGACRAIRHIPRRIR; Transmembrane protein gp41; UniProt P04578 834-848, looked up, fragment)”, the “% Responding” value is listed as 75%.

same assay, conditions: T helper epitopes of Schrier et al 1989; share of population studied; cited from earlier work

Going from “pol-3: T helper epitope, amino acids 942-954 of pol” to “pol-4: T helper epitope, amino acids 720-730 of pol (PSINNETPGIR; UniProt P04585 720-730, looked up, fragment)”, the “% Responding” value falls from 48% to 35%.

First: gp41-2: T helper epitope, amino acids 609-620 of gp41 (PWNASWSNKSLE; Transmembrane protein gp41; UniProt P04578 609-620, looked up, fragment)
Second: gp120-2: T helper epitope, amino acids 115-126 of gp120 (SLKPCVKLTPLC; Envelope glycoprotein gp120; UniProt P04578 115-126, looked up, fragment)
The “% Responding” value of the first is higher: 42% for the first, 38% for the second.

Compared with “gp41-5: T helper epitope, amino acids 737-749 of gp41 (GGERDRDRSIRLV; Transmembrane protein gp41; UniProt P04578 737-749, looked up, fragment)”, “gp41-7: T helper epitope, amino acids 584-609 of gp41 (ERYLKDQQLLGIWGCSGKLICTTAVP; Transmembrane protein gp41; UniProt P04578 584-609, looked up, fragment)” is higher in “% Responding” value: 21% for the first, 24% for the second.

First: pol-2: T helper epitope, amino acids 923-937 of pol
Second: gp120-5: T helper epitope, amino acids 368-377 of gp120 (DPEIVTHSFN; Envelope glycoprotein gp120; UniProt P04578 368-377, looked up, fragment)
The “% Responding” value of the first is higher: 38% for the first, 21% for the second.

First: pol-1: T helper epitope, amino acids 899-913 of pol
Second: gp41-1: T helper epitope, amino acids 603-614 of gp41 (ICTTAVPWNASW; Transmembrane protein gp41; UniProt P04578 603-614, looked up, fragment)
The “% Responding” value of the first is lower: 28% for the first, 41% for the second.

For “gp41-3: T helper epitope, amino acids 655-667 of gp41 (KNEQELLELDKWA; Transmembrane protein gp41; UniProt P04578 655-667, looked up, fragment)”, the “% Responding” value is listed as 38%.
